Experimental data as given in patent publication US9469615B2, “Quinoxalines and AZA-quinoxalines as CRTH2 receptor modulators” (Merck Sharp & Dohme Corp., priority 2010, dated 2016).

target: T1, hCRTH2 (Homo sapiens, UniProt Q9Y5Y4); assay: Radioligand binding assay ([3H]PGD2 competition, HEK-hCRTH2 membranes); details: [3H]PGD2 binding, values in text
T1 construct: expressed in transfected cells; host or cells: HEK (human embryonic kidney) cells expressing hCRTH2; membrane preparation
T1 sequence (Q9Y5Y4 1-395): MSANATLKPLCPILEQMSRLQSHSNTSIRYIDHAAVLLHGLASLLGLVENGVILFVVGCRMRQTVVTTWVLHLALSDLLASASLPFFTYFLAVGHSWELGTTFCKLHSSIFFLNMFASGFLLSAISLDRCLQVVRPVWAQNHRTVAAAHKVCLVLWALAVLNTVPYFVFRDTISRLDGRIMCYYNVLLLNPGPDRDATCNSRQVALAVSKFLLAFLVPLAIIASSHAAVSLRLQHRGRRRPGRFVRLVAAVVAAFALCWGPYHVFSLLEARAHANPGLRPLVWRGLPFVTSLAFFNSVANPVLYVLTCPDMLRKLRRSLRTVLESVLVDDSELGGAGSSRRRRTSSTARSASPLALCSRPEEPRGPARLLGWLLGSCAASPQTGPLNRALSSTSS
Method in brief: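 Membranes (8-20 μg protein) from HEK-hCRTH2 cells were incubated 60 min at room temperature with 3.0 nM [3H]PGD2 in 50 mM Tris-HCl pH 7.4, 1 mM EDTA, 2 mM MnCl2, 1% DMSO. Non-specific binding defined with 10 μM PGD2. Bound radioactivity counted after filtration.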

Q: How did the Ki turn out when `Cc1cnccc1N1CCN(C(=O)c2ccc3nc(-c4ccc(F)cc4)c(CCCCC(=O)O)nc3c2)CC1` [compound 368, 5-(3-(4-fluorophenyl)-7-(4-(3-methylpyridin-4-yl)piperazine-1-carbonyl)quinoxalin-2-yl)pentanoic acid] was run?
A: 21.4 nM

same assay, conditions: [3H]PGD2 competition, Table B

Q: With `O=C(O)CCCCc1nc2cc(C(=O)N3CCC(n4cccn4)CC3)ccc2nc1-c1ccc(Cl)cc1` [compound 342, 5-(7-(4-(1H-pyrazol-1-yl)piperidine-1-carbonyl)-3-(4-chlorophenyl)quinoxalin-2-yl)pentanoic acid] as the compound, how does the Ki read?
A: 2.1 to 20 nM

Q: Which Ki does the source give for `O=C(O)CCCCc1nc2cc(C(=O)N3CCC4(CC3)COc3ccccc34)ccc2nc1-c1ccc(Cl)cc1` [compound 343, 5-(3--(4-chlorophenyl)-7-(2H-spiro[benzofuran-3,4′-piperidin]-1′-ylcarbonyl)quinoxalin-2-yl)pentanoic acid] here?
A: 2.1 to 20 nM

Q: How did the Ki turn out when `O=C(O)CCCCc1nc2cc(C(=O)N3CCC4(CC3)NC(=O)c3ccccc3O4)ccc2nc1-c1ccc(Cl)cc1` [compound 344, 5-(3-(4-chlorophenyl)-7-(4-oxo-3,4-dihydrospiro[benzo[e][1,3]oxazine-2,4′-piperidin]-1′-ylcarbonyl)quinoxalin-2-yl)pentanoic acid] was run?
A: 2.1 to 20 nM

Q: `O=C(O)CCCCc1nc2cc(C(=O)N3CC4CCCC(C3)C4c3ccccc3)ccc2nc1-c1ccc(Cl)cc1` [compound 345, 5-(3-(4-chlorophenyl)-7-((1R,5S,9r)-9-phenyl-3-azabicyclo[3.3.1]nonane-3-carbonyl)quinoxa1in-2-yl)pentanoic acid] was tested. Which Ki did it give?
A: 2.1 to 20 nM

Q: `Cn1cnc(C2CCN(C(=O)c3ccc4nc(-c5ccc(Cl)cc5)c(CCCCC(=O)O)nc4c3)CC2)c1` [compound 346, 5-(3-(4-chlorophenyl)-7-(4-(1-methyl-1H-imidazol-4-yl)piperidine-1-carbonyl)quinoxalin-2-yl)pentanoic acid] was tested. Which Ki did it give?
A: 2.1 to 20 nM

Q: `O=C(O)CCCCc1nc2cc(C(=O)N3CCc4oc(C5CC5)nc4C3)ccc2nc1-c1ccc(Cl)cc1` [compound 347, 5-(3-(4-chlorophenyl)-7-(2-cyclopropyl-4,5,6,7-tetrahydrooxazolo[4,5-c]pyridine-5-carbonyl)quinoxalin-2-yl)pentanoic acid] was tested. Which Ki did it give?
A: 20.1 to 200 nM

Q: `O=C(O)CCCCc1nc2cc(C(=O)N3CCC(n4ncc5ccccc54)CC3)ccc2nc1-c1ccc(Cl)cc1` [compound 348, 5-(7-(4-(1H-indazol-1-yl)piperidine-1-carbonyl)-3-(4-chlorophenyl)quinoxalin-2-yl)pentanoic acid] was tested. Which Ki did it give?
A: 2.1 to 20 nM

Q: Which Ki does the source give for `CN1CC2(CCN(C(=O)c3ccc4nc(-c5ccc(Cl)cc5)c(CCCCC(=O)O)nc4c3)CC2)CC1=O` [compound 349, 5-(3-(4-chlorophenyl)-7-(2-methyl-3-oxo-2,8-diazaspiro[4.5]decane-8-carbonyl)quinoxalin-2-yl)pentanoic acid] here?
A: 20.1 to 200 nM

Q: For `O=C(O)CCCCc1nc2cc(C(=O)N3CCN(c4ccccc4)C(=O)C3)ccc2nc1-c1ccccc1` [compound 350, 5-(7-(3-oxo-4-phenylpiperazine-1-carbonyl)-3-phenylquinoxalin-2-yl)pentanoic acid], which Ki is on record?
A: 20.1 to 200 nM

Q: For `O=C(O)CCCCc1nc2cc(C(=O)N3CCN(c4ccc(F)cc4)CC3)ccc2nc1-c1ccccc1` [compound 351, 5-(7-(4-(4-fluorophenyl)piperazine-1-carbonyl)-3-phenylquinoxalin-2-yl)pentanoic acid], which Ki is on record?
A: 2.1 to 20 nM

Q: How did the Ki turn out when `O=C(O)CCCCc1nc2cc(C(=O)NC3CC(=O)Nc4ccccc43)ccc2nc1-c1ccc(F)cc1` (centres unmarked) [compound 352, 5-(3-(4-fluorophenyl)-7-((2-oxo-1,2,3,4-tetrahydroquinolin-4-yl)carbamoyl)quinoxalin-2-yl)pentanoic acid] was run?
A: 2.1 to 20 nM

Q: Which Ki does the source give for `O=C(O)CCCCc1nc2cc(C(=O)N3CCC4(CC3)CNC(=O)c3ccccc34)ccc2nc1-c1ccc(F)cc1` [compound 353, 5-(3-(4-fluorophenyl)-7-(1-oxo-2,3-dihydro-1H-spiro[isoquinoline-4,4′-piperidin]-1′-ylcarbonyl)quinoxalin-2-yl)pentanoic acid] here?
A: 2.1 to 20 nM

Q: Which Ki does the source give for `O=C(O)CCCCc1nc2cc(C(=O)N[C@@H]3CCCc4ccncc43)ccc2nc1-c1ccc(F)cc1` [compound 354, (R)-5-(3-(4-fluorophenyl)-7-((5,6,7,8-tetrahydroisoquinolin-8-yl)carbamoyl)quinoxalin-2-yl)pentanoic acid] here?
A: 20.1 to 200 nM

Q: How did the Ki turn out when `O=C(O)CCCCc1nc2cc(C(=O)N[C@@H]3CCSc4ccccc43)ccc2nc1-c1ccc(F)cc1` [compound 355, (R)-5-(3-(4-fluorophenyl)-7-(thiochroman-4-ylcarbamoyl)quinoxalin-2-yl)pentanoic acid] was run?
A: 2.1 to 20 nM

Q: How did the Ki turn out when `O=C(O)CCCCc1nc2cc(C(=O)N3CCC(n4c(=O)[nH]c5ccccc54)CC3)ccc2nc1-c1ccc(F)cc1` [compound 356, 5-(3-(4-fluorophenyl)-7-(4-(2-oxo-2,3-dihydro-1H-benzo[d]imidazol-1-yl)piperidine-1-carbonyl)quinoxalin-2-yl)pentanoic acid] was run?
A: 20.1 to 200 nM

Q: With `O=C(O)CCCCc1nc2cc(C(=O)N3CCN(c4ccccn4)CC3)ccc2nc1-c1ccc(F)cc1` [compound 357, 5-(3-(4-fluorophenyl)-7-(4-(pyridin-2-yl)piperazine-1-carbonyl)quinoxalin-2-yl)pentanoic acid] as the compound, how does the Ki read?
A: 2.1 to 20 nM

Q: With `N#Cc1cccnc1N1CCN(C(=O)c2ccc3nc(-c4ccc(F)cc4)c(CCCCC(=O)O)nc3c2)CC1` [compound 358, 5-(7-(4-(3-cyanopyridin-2-yl)piperazine-l-carbonyl)-3-(4-fluorophenyl)quinoxalin-2-yl)pentanoic acid] as the compound, how does the Ki read?
A: 2.1 to 20 nM

Q: `N#Cc1ccccc1N1CCN(C(=O)c2ccc3nc(-c4ccc(F)cc4)c(CCCCC(=O)O)nc3c2)CC1` [compound 359, 5-(7-(4-(2-cyanophenyl)piperazine-1-carbonyl)-3-(4-fluorophenyl)quinoxalin-2-yl)pentanoic acid] was tested. Which Ki did it give?
A: 2.1 to 20 nM

Q: Which Ki does the source give for `O=C(O)CCCCc1nc2cc(C(=O)N3CCN(c4cnccn4)CC3)ccc2nc1-c1ccc(F)cc1` [compound 360, 5-(3-(4-fluorophenyl) 7-(4-(pyrazin-2-yl)piperazine-1-carbonyl)quinoxalin-2-yl)pentanoic acid] here?
A: 20.1 to 200 nM

Q: For `COc1ccccc1C1CCN(C(=O)c2ccc3nc(-c4ccc(F)cc4)c(CCCCC(=O)O)nc3c2)CC1` [compound 361, 5-(3-(4-fluorophenyl)-7-(4-(2-methoxyphenyl)piperidine-1-carbonyl)quinoxalin-2-yl)pentanoic acid], which Ki is on record?
A: 2.1 to 20 nM

Q: Which Ki does the source give for `O=C(O)CCCCc1nc2cc(C(=O)N3CCC4(CC3)OCc3ccccc34)ccc2nc1-c1ccc(F)cc1` [compound 362, 5-(3-(4-fluorophenyl)-7-(3H-spiro[isobenzofuran-1,4′-piperidin]-1′-ylcarbonyl)quinoxalin-2-yl)pentanoic acid] here?
A: 2.1 to 20 nM

Q: Which Ki does the source give for `O=C(O)CCCCc1nc2cc(C(=O)N3CCN(c4ccccc4C(F)(F)F)CC3)ccc2nc1-c1ccc(F)cc1` [compound 363, 5-(3-(4-fluorophenyl)-7-(4-(2-(trifluoromethyl)phenyl)piperazine-1-carbonyl)quinoxalin-2-yl)pentanoic acid] here?
A: 2.1 to 20 nM

Q: Which Ki does the source give for `O=C(O)CCCCc1nc2cc(C(=O)N3CCN(c4ccccc4Cl)CC3)ccc2nc1-c1ccc(F)cc1` [compound 364, 5-(7-(4-(2-chlorophenyl)piperazine-1-carbonyl)-3-(4-fluorophenyl)quinoxalin-2-yl)pentanoic acid] here?
A: 2.1 to 20 nM

Q: How did the Ki turn out when `Cc1ccccc1N1CCN(C(=O)c2ccc3nc(-c4ccc(F)cc4)c(CCCCC(=O)O)nc3c2)CC1` [compound 365, 5-(3-(4-fluorophenyl)-7-(4-(o-tolyl)piperazine-1-carbonyl)quinoxalin-2-yl)pentanoic acid] was run?
A: 2.1 to 20 nM

Q: For `Cc1cccc(N2CCN(C(=O)c3ccc4nc(-c5ccc(F)cc5)c(CCCCC(=O)O)nc4c3)CC2)c1` [compound 366, 5-(3-(4-fluorophenyl)-7-(4-(m-tolyl)piperazine-1-carbonyl)quinoxalin-2-yl)pentanoic acid], which Ki is on record?
A: 2.1 to 20 nM

Q: For `COc1ccc(N2CCN(C(=O)c3ccc4nc(-c5ccc(F)cc5)c(CCCCC(=O)O)nc4c3)CC2)cc1` [compound 367, 5-(3-(4-fluorophenyl)-7-(4-(4-methoxyphenyl)piperazine-1-carbonyl)quinoxalin-2-yl)pentanoic acid], which Ki is on record?
A: 2.1 to 20 nM

Q: For `Cc1cnccc1N1CCN(C(=O)c2ccc3nc(-c4ccc(F)cc4)c(CCCCC(=O)O)nc3c2)CC1` [compound 368, 5-(3-(4-fluorophenyl)-7-(4-(3-methylpyridin-4-yl)piperazine-1-carbonyl)quinoxalin-2-yl)pentanoic acid], which Ki is on record?
A: 20.1 to 200 nM

Q: For `Cc1ccc(N2CCN(C(=O)c3ccc4nc(-c5ccc(F)cc5)c(CCCCC(=O)O)nc4c3)CC2)cc1` [compound 369, 5-(3-(4-fluorophenyl)-7-(4-(p-tolyl)piperazine-1-carbonyl)quinoxalin-2-yl)pentanoic acid], which Ki is on record?
A: 2.1 to 20 nM

Q: With `O=C(O)CCCCc1nc2cc(C(=O)N[C@@H]3CCCc4cccnc43)ccc2nc1-c1ccccc1` [compound 370, (R)-8-(3-(4-carboxybutyl)-2-phenylquinoxaline-6-carboxamido)-5,6,7,8-tetrahydroquinolin-1-ium 2,2,2-trifluoroacetic acid] as the compound, how does the Ki read?
A: 201 to 700 nM

Q: With `O=C(O)CCCCc1nc2cc(C(=O)N[C@H]3CCCc4cccnc43)ccc2nc1-c1ccccc1` [compound 371, (S)-8-(3-(4-carboxybutyl)-2-phenylquinoxaline-6-carboxamido)-5,6,7,8-tetrahydroquinolin-1-ium 2,2,2-trifluoroacetic acid] as the compound, how does the Ki read?
A: 2.1 to 20 nM

Q: For `COc1ccc(C2CN(C(=O)c3ccc4nc(-c5ccc(F)cc5)c(CCCCC(=O)O)nc4c3)C2)cc1` [compound 372, 5-(3-(4-fluorophenyl)-7-(3-(4-methoxyphenyl)azetidine-1-carbonyl)quinoxalin-2-yl)pentanoic acid], which Ki is on record?
A: 2.1 to 20 nM
